Source: ChEMBL document CHEMBL1132016, “Catalytic activity of carboxypeptidase B and of carboxypeptidase Y with anisylazoformyl substrates” (Bioorg Med Chem Lett, 1999)

B1: Carboxypeptidase B (Sus scrofa), P09955 (protein)
chain: MLAFLILVTVTLASAHHSGEHFEGEKVFRVNVEDENDISLLHELASTRQIDFWKPDSVTQIKPHSTVDFRVKAEDILAVEDFLEQNELQYEVLINNLRSVLEAQFDSRVRTTGHSYEKYNNWETIEAWTKQVTSENPDLISRTAIGTTFLGNNIYLLKVGKPGPNKPAIFMDCGFHAREWISHAFCQWFVREAVLTYGYESHMTEFLNKLDFYVLPVLNIDGYIYTWTKNRMWRKTRSTNAGTTCIGTDPNRNFDAGWCTTGASTDPCDETYCGSAAESEKETKALADFIRNNLSSIKAYLTIHSYSQMILYPYSYDYKLPENNAELNNLAKAAVKELATLYGTKYTYGPGATTIYPAAGGSDDWAYDQGIKYSFTFELRDKGRYGFILPESQIQATCEETMLAIKYVTNYVLGHL

Legend:
[1] = target: T1, Carboxypeptidase B (Sus scrofa) (UniProt P09955); assay: Substrate kinetic value (kcat) against porcine carboxypeptidase B
T1 sequence (whole entry): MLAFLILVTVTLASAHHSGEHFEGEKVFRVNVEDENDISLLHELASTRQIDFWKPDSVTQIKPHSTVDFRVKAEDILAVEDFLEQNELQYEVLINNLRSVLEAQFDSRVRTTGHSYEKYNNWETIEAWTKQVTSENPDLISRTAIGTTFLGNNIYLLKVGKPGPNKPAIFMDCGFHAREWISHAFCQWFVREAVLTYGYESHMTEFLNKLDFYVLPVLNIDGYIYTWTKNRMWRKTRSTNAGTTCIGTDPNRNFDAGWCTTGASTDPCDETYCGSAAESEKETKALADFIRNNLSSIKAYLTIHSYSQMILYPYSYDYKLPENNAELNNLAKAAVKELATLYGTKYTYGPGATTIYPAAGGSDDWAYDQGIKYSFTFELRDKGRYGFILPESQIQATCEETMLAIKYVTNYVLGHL

[2] = Ratio of kinetic constants (kcat/km) for the inhibition against carboxypeptidase B
[3] = substrate: C[C@@H](NC(=O)/C=C/c1ccco1)C(=O)N[C@@H](CCCCN)C(=O)O; assay: (§1) Affinity to porcine carboxypeptidase B at pH 7.9
[4] = substrate: COc1ccc(/N=N/C(=O)NC(CCCCN)C(=O)O)cc1; assay: as §1

| Molecule | k cat [1] [s⁻¹] | Ratio [2] [M⁻¹ s⁻¹] | Km [3] [µM] | Km [4] [µM] |
| --- | --- | --- | --- | --- |
| COc1ccc(/N=N/C(=O)NC(CCCCN)C(=O)O)cc1 (stereo not given) | 76 | 95000 |  |  |
| C[C@@H](NC(=O)/C=C/c1ccco1)C(=O)N[C@@H](CCCCN)C(=O)O |  | 36000 |  |  |
| B1 |  |  | 1160 | 810 |
